# ChEMBL document CHEMBL4184292, “Synthetic strigolactone analogues reveal anti-cancer activities on hepatocellular carcinoma cells” (Bioorg Med Chem Lett, 2018)
# Activity calls are given as the source filed them. The calls are words filed in the database; no cut-off is given here.
# Tests used:
# Jurkat = test: Cytotoxicity against human Jurkat cells assessed as reduction in cell viability after 24 hrs by WST1 assay; type: functional, cell-based
# HepG2 [1] = test: Induction of apoptosis in human HepG2 cells assessed as late apoptotic cells at 80 uM after 6 hrs by Annexin-V/7AAD staining based flow cytometry (reference value: 0.2 to 0.7 %); type: functional
# HepG2 [2] = test: Antimigratory activity in human HepG2 cells at 80 uM after 24 hrs by wound-scratch assay; type: functional, cell-based
# HepG2 [3] = test: Cytotoxicity against human HepG2 cells assessed as reduction in cell viability at 80 uM by WST1 assay; type: functional, cell-based; details: TDE = time-dependent effect
# HepG2 [4] = test: Induction of apoptosis in human HepG2 cells assessed as early apoptotic cells at 80 uM after 2 hrs by Annexin-V/7AAD staining based flow cytometry (reference value: 3.8 to 4.2 %); type: functional
# HepG2 [5] = test: Cytotoxicity against human HepG2 cells assessed as reduction in cell viability after 24 hrs by WST1 assay; type: functional, cell-based; details: for IC50: HepG2, 24 h
# HepG2 [6] = test: Induction of apoptosis in human HepG2 cells assessed as late apoptotic cells at 80 uM after 2 hrs by Annexin-V/7AAD staining based flow cytometry (reference value: 0.2 to 0.7 %); type: functional
# HepG2 [7] = test: Cytotoxicity against human HepG2 cells assessed as reduction in cell viability at 80 uM after 8 hrs by WST1 assay relative to control; type: functional
# HepG2 [8] = test: Induction of apoptosis in human HepG2 cells assessed as early apoptotic cells at 80 uM after 24 hrs by Annexin-V/7AAD staining based flow cytometry (reference value: 5.1 to 12.5 %); type: functional
# PC-3 = test: Cytotoxicity against human PC3 cells assessed as reduction in cell viability after 24 hrs by WST1 assay; type: functional, cell-based; details: for IC50: PC-3, 24 h
# HepG2 [9] = test: Induction of apoptosis in human HepG2 cells assessed as late apoptotic cells at 20 uM after 24 hrs by Annexin-V/7AAD staining based flow cytometry (reference value: 0.2 to 0.4%); type: functional
# [10] = Cytotoxicity against BHK cells assessed as reduction in cell viability at 80 uM after 48 hrs by WST1 assay relative to control; type: cell-based, Mesocricetus auratus; details: hamster
# HepG2 [11] = test: Induction of apoptosis in human HepG2 cells assessed as early apoptotic cells at 80 uM after 6 hrs by Annexin-V/7AAD staining based flow cytometry (reference value: 3.8 to 4.2 %); type: functional
# HepG2 [12] = test: Induction of apoptosis in human HepG2 cells assessed as late apoptotic cells at 40 uM after 24 hrs by Annexin-V/7AAD staining based flow cytometry (reference value: 0.2 to 0.4%); type: functional
# HepG2 [13] = test: Induction of apoptosis in human HepG2 cells assessed as early apoptotic cells at 60 uM after 24 hrs by Annexin-V/7AAD staining based flow cytometry (reference value: 5.1 to 12.5 %); type: functional
# HepG2 [14] = test: Cytotoxicity against human HepG2 cells assessed as reduction in cell viability at 80 uM after 4 hrs by WST1 assay relative to control; type: functional
# HepG2 [15] = test: Induction of apoptosis in human HepG2 cells assessed as early apoptotic cells at 40 uM after 24 hrs by Annexin-V/7AAD staining based flow cytometry (reference value: 5.1 to 12.5 %); type: functional
# HepG2 [16] = test: Cytotoxicity against human HepG2 cells assessed as reduction in cell viability at 80 uM after 24 hrs by WST1 assay relative to control; type: functional
# HepG2 [17] = test: Cytotoxicity against human HepG2 cells assessed as reduction in cell viability at 80 uM after 12 hrs by WST1 assay relative to control; type: functional
# HepG2 [18] = test: Induction of apoptosis in human HepG2 cells assessed as late apoptotic cells at 80 uM after 24 hrs by Annexin-V/7AAD staining based flow cytometry (reference value: 0.2 to 0.4%); type: functional
# HepG2 [19] = test: Induction of apoptosis in human HepG2 cells assessed as early apoptotic cells at 20 uM after 24 hrs by Annexin-V/7AAD staining based flow cytometry (reference value: 5.1 to 12.5 %); type: functional
# HepG2 [20] = test: Induction of apoptosis in human HepG2 cells assessed as late apoptotic cells at 60 uM after 24 hrs by Annexin-V/7AAD staining based flow cytometry (reference value: 0.2 to 0.4%); type: functional
# HepG2 [21] = test: Cytotoxicity against human HepG2 cells assessed as reduction in cell viability at 40 uM after 24 hrs by WST1 assay; type: functional, cell-based
# HepG2 [22] = test: Growth inhibition of human HepG2 cells at 100 uM after 24 hrs; type: functional, cell-based
# HepG2 [23] = test: Antimigratory activity in human HepG2 cells at 100 uM after 24 hrs by wound-scratch assay; type: functional, cell-based
smiles,measurement,setting,value
COC(=O)/C(=C/OC1C=C(C)C(=O)O1)c1ccccc1 (stereo not drawn),Activity,Jurkat,Dose-dependent effect
same,IC50,Jurkat,46.4 µM
same,Activity,HepG2 [1],1.2%
same,Activity,HepG2 [2],Active
same,Activity,HepG2 [3],Tde
same,Activity,HepG2 [4],3.8%
same,Activity,HepG2 [5],Dose-dependent effect
same,IC50,HepG2 [5],63.5 µM
same,Activity,HepG2 [6],1.7%
same,Activity,HepG2 [7],20%
same,Activity,HepG2 [8],26.6%
same,Activity,PC-3,Dose-dependent effect
same,IC50,PC-3,55.1 µM
same,Activity,HepG2 [9],0.2%
same,Activity,[10],18%
same,Activity,HepG2 [11],13.3%
same,Activity,HepG2 [12],0.2%
same,Activity,HepG2 [13],18.5%
same,Activity,HepG2 [14],13%
same,Activity,HepG2 [15],13.1%
same,Activity,HepG2 [16],63.4 - 73%
same,Activity,HepG2 [17],31%
same,Activity,HepG2 [18],0.2%
same,Activity,HepG2 [19],9.5%
same,Activity,HepG2 [20],0.4%
CC1=CC(Oc2cc(Cl)cc(Cl)c2)OC1=O (stereo not drawn),IC50,HepG2 [5],89.5 µM
same,Activity,HepG2 [16],40.7%
COC(=O)/C(=C/OC1C=C(C)C(=O)O1)c1ccc(Cl)cc1 (stereo not drawn),Activity,Jurkat,Dose-dependent effect
same,IC50,Jurkat,44.7 µM
same,Activity,HepG2 [1],1.5%
same,Activity,HepG2 [2],Active
same,Activity,HepG2 [3],Tde
same,Activity,HepG2 [4],4.3%
same,Activity,HepG2 [5],Dose-dependent effect
same,IC50,HepG2 [5],67.8 µM
same,Activity,HepG2 [6],0.9%
same,Activity,HepG2 [7],19%
same,Activity,HepG2 [8],20.9%
same,Activity,PC-3,Dose-dependent effect
same,IC50,PC-3,56.6 µM
same,Activity,HepG2 [9],0.2%
same,Activity,[10],23%
same,Activity,HepG2 [21],Active
same,Activity,HepG2 [11],13.7%
same,Activity,HepG2 [12],0.4%
same,Activity,HepG2 [13],16.1%
same,Activity,HepG2 [14],11%
same,Activity,HepG2 [15],11.3%
same,Activity,HepG2 [16],61 - 61.4%
same,Activity,HepG2 [17],26%
same,Activity,HepG2 [18],0.5%
same,Activity,HepG2 [19],9.5%
same,Activity,HepG2 [20],0.5%
CC1=CC(Oc2ccc(Cl)c(Cl)c2)OC1=O (stereo not drawn),IC50,HepG2 [5],85.9 µM
same,Activity,HepG2 [21],Active
same,Activity,HepG2 [16],43.5%
CC1=CC(Oc2c(Br)cccc2C#N)OC1=O (stereo not drawn),IC50,HepG2 [5],87.6 µM
same,Activity,HepG2 [16],43.8%
CC1=CC(=O)C(C(C)C)=CC1=O [THYMOQUINONE],growth inhibition (GI),HepG2 [22],Active
same,Activity,HepG2 [23],Active
same,Activity,HepG2 [8],91.8%
same,Activity,HepG2 [18],3.3%
COC(=O)/C(=C/OC1C=C(C)C(=O)O1)c1ccc(OC)cc1 (stereo not drawn),IC50,HepG2 [5],82.1 µM
same,Activity,[10],33%
same,Activity,HepG2 [21],Active
same,Activity,HepG2 [16],50.1%
CC1=CC(Oc2ccc(F)cc2Br)OC1=O (stereo not drawn),IC50,HepG2 [5],90.3 µM
same,Activity,HepG2 [16],39%
